According to US6589993B2, “Treating vancomycin-intermediates and multiresistant staphylococci infection with thiamphenicol or a salt thereof” (Zambon Group S.p.A., priority 2000, dated 2003):
In brackets after ≈: the same amount, converted by molar mass. Like-named read-outs stand apart in the source and are kept apart here. One block for each compound: values may come before it.

Key:
[1] = system: S. aureus Met-R multiresistant strains; experiment: MIC determination (NCCLS broth microdilution), methicillin-resistant multiresistant S. aureus strains; type: cell-based, Staphylococcus aureus; conditions: for MIC: antibiotype Oxa, Ery, read-out: MIC
Method: (§1) The MICs of thiamphenicol and of other antibiotics was obtained by using the method proposed by NCCLS (National Committee for Clinical Laboratory Standards, 1999).
(§2) Various antibiotic concentrations were added to bacteria in exponental growth (final inoculum 5×10^5 […]); dilution in Mb (cation-supplemented Mueller-Hinton broth) and distribution on a microplate by using an automatic diluting machine Biomek 1000 (Beckman, USA). MHb charged with 2% NaCl was used to test the methicillin activity.
(§3) The antibiotic concentration which hinders a visible growth after 18-24 hours of incubation at 37° C., was registered as MIC.
(§4) S. aureus ATCC 29213 was used as quality control strain.

[2] = system: S. aureus vancomycin-intermediates (VISA) Met-R strains; experiment: MIC determination (NCCLS broth microdilution), VISA Met-R strains; type: cell-based, Staphylococcus aureus; conditions: for MIC: antibiotype Oxa, Cip, Clin, Ery
Method: as §1, §2, §3, §4

[3] = Staphylococcus aureus, Strain 1, Cip, Clin, Gm
[4] = Staphylococcus aureus, Strain 2, Clin, Fos
[5] = Staphylococcus aureus, Strain 3, Cip, Clin, Gm
[6] = Staphylococcus aureus, Strain 4, Cip, Gm
[7] = Staphylococcus aureus, Strain 5, Cip, Clin
[8] = Staphylococcus aureus, Strain 6, Clin, Gm
[9] = Staphylococcus aureus, Strain 7, Cip, Gm
[10] = Staphylococcus aureus, Strain 8, Cip, Clin
[11] = Staphylococcus aureus, Strain 9, Cip, Clin, Gm
[12] = Staphylococcus aureus, Strain 10, Cip, Clin, Gm
[13] = Staphylococcus aureus, Strain 11, Clin, Rif
[14] = Staphylococcus aureus, Strain 12, Cip, Clin
[15] = Staphylococcus aureus, Strain 13, Cip, Clin
[16] = Staphylococcus aureus, Strain 14, Clin, Cip
[17] = Staphylococcus aureus, Strain 15, Cip, Clin, Gm
[18] = Staphylococcus aureus, Strain 16, Cip, Clin
[19] = Staphylococcus aureus, Strain 17, Cip, Clin
[20] = Staphylococcus aureus, Strain 18, Cip, Clin, Gm
[21] = Staphylococcus aureus, Strain 19, Cip, Clin, Gm
[22] = Staphylococcus aureus, Strain 20, Cip, Clin, Gm
[23] = Staphylococcus aureus, Strain 21, Cip, Clin, Gm
[24] = Staphylococcus aureus, Strain 22, Cip, Clin
[25] = Staphylococcus aureus, Strain 23, Cip, Clin, Gm
[26] = Staphylococcus aureus, Strain 24, Cip, Clin, Gm
[27] = Staphylococcus aureus, Strain 25, Cip, Clin, Gm
[28] = Staphylococcus aureus, Strain 26, Cip, Clin, Fos, Gm
[29] = Staphylococcus aureus, Strain 27, Cip, Clin, Fos, Gm
[30] = Staphylococcus aureus, Strain 28, Cip, Clin, Gm
[31] = Staphylococcus aureus, Strain 29, Clin, Fos
[32] = Staphylococcus aureus, Strain 30, Cip, Clin, Gm, SXT, Dox
[33] = Staphylococcus aureus, Strain 31, Cip, Clin, Fox, Gm
[34] = Staphylococcus aureus, Strain 32, Cip, Clin, Gm, SXT, Rif
[35] = Staphylococcus aureus, Strain 33, Cip, Clin, Gm
[36] = Staphylococcus aureus, Strain 34, Cip, Clin, Gm
[37] = Staphylococcus aureus, Strain 35, Cip, Clin, Gm
[38] = Staphylococcus aureus, Strain 36, Cip, Clin, Fos
[39] = Staphylococcus aureus, Strain 37, Cip, Clin, Fos, Gm
[40] = Staphylococcus aureus, Strain 38, Cip, Gm
[41] = Staphylococcus aureus, Strain 39, Cip, Clin, Fos, Gm
[42] = Staphylococcus aureus, Strain 40, Cip, Clin, Gm
[43] = Staphylococcus aureus, Strain 41, Cip, Clin
[44] = Staphylococcus aureus, Strain 42, Cip, Clin, Gm
[45] = Staphylococcus aureus, Strain 43, Cip, Clin, Gm
[46] = Staphylococcus aureus, Strain 44, Cip, Clin, Gm, Rif, Dox
[47] = Staphylococcus aureus, Strain 45, Cip, Clin, Gm, Rif, Dox, Fos
[48] = Staphylococcus aureus, Strain 46, Clin, Fos
[49] = Staphylococcus aureus, Strain 47, Cip, Clin, Gm
[50] = Staphylococcus aureus, Strain 48, Cip, Clin
[51] = Staphylococcus aureus, Strain 49, Cip, Gm
[52] = Staphylococcus aureus, Strain 50, Cip, Clin, Gm, Rif, Dox
[53] = Staphylococcus aureus, Strain 51 VISA, read-out: MIC

- MIC [1, 3]: > 64 µg/mL
- MIC [1, 4]: > 64 µg/mL
- MIC [1, 5]: > 64 µg/mL
- MIC [1, 6]: ≤ 0.06 µg/mL
- MIC [1, 7]: > 64 µg/mL
- MIC [1, 8]: > 64 µg/mL
- MIC [1, 9]: ≤ 0.06 µg/mL
- MIC [1, 10]: > 64 µg/mL
- MIC [1, 11]: > 64 µg/mL
- MIC [1, 12]: 64 µg/mL (≈ 151 µM)
- MIC [1, 13]: > 64 µg/mL
- MIC [1, 14]: > 64 µg/mL
- MIC [1, 15]: > 64 µg/mL
- MIC [1, 16]: > 64 µg/mL
- MIC [1, 17]: > 64 µg/mL
- MIC [1, 18]: > 64 µg/mL
- MIC [1, 19]: > 64 µg/mL
- MIC [1, 20]: > 64 µg/mL
- MIC [1, 21]: > 64 µg/mL
- MIC [1, 22]: 64 µg/mL (≈ 151 µM)
- MIC [1, 23]: > 64 µg/mL
- MIC [1, 24]: > 64 µg/mL
- MIC [1, 25]: > 64 µg/mL
- MIC [1, 26]: > 64 µg/mL
- MIC [1, 27]: 64 µg/mL (≈ 151 µM)
- MIC [1, 28]: 64 µg/mL (≈ 151 µM)
- MIC [1, 29]: 64 µg/mL (≈ 151 µM)
- MIC [1, 30]: > 64 µg/mL
- MIC [1, 31]: > 64 µg/mL
- MIC [1, 32]: 16 µg/mL (≈ 37.6 µM)
- MIC [1, 33]: > 64 µg/mL
- MIC [1, 34]: 64 µg/mL (≈ 151 µM)
- MIC [1, 35]: > 64 µg/mL
- MIC [1, 36]: > 64 µg/mL
- MIC [1, 37]: 64 µg/mL (≈ 151 µM)
- MIC [1, 38]: 64 µg/mL (≈ 151 µM)
- MIC [1, 39]: 64 µg/mL (≈ 151 µM)
- MIC [1, 40]: ≤ 0.06 µg/mL
- MIC [1, 41]: 64 µg/mL (≈ 151 µM)
- MIC [1, 42]: > 64 µg/mL
- MIC [1, 43]: 64 µg/mL (≈ 151 µM)
- MIC [1, 44]: 64 µg/mL (≈ 151 µM)
- MIC [1, 45]: 64 µg/mL (≈ 151 µM)
- MIC [1, 46]: 64 µg/mL (≈ 151 µM)
- MIC [1, 47]: 64 µg/mL (≈ 151 µM)
- MIC [1, 48]: 64 µg/mL (≈ 151 µM)
- MIC [1, 49]: 64 µg/mL (≈ 151 µM)
- MIC [1, 50]: 64 µg/mL (≈ 151 µM)
- MIC [1, 51]: ≤ 0.06 µg/mL
- MIC [1, 52]: > 64 µg/mL
- MIC50 ([1]; Staphylococcus aureus, S. aureus (50) Met-R, read-out: MIC 50%): > 64 µg/mL
- MIC90 ([1]; Staphylococcus aureus, S. aureus (50) Met-R, read-out: MIC 90%): > 64 µg/mL
- MIC [2, 53]: > 64 µg/mL
- MIC ([2]; Strain 52 VISA): >64 µg/mL
- MIC Range ([2]; VISA (2) Met-R): >64 µg/mL
Compound: CCC[C@@H]1C[C@@H](C(=O)N[C@@H]([C@H]2O[C@H](SC)[C@H](O)[C@@H](O)[C@H]2O)[C@H](C)Cl)N(C)C1 [Clindamycin, clindamycin]
- % susceptible at breakpoint ([1]; S. aureus (50) Met-R, NCCLS (1999) breakpoints): 8%

- MIC [1, 3]: > 64 µg/mL
- MIC [1, 4]: > 64 µg/mL
- MIC [1, 5]: > 64 µg/mL
- MIC [1, 6]: > 64 µg/mL
- MIC [1, 7]: > 64 µg/mL
- MIC [1, 8]: > 64 µg/mL
- MIC [1, 9]: 32 µg/mL (≈ 84.1 µM)
- MIC [1, 10]: > 64 µg/mL
- MIC [1, 11]: > 64 µg/mL
- MIC [1, 12]: > 64 µg/mL
- MIC [1, 13]: > 64 µg/mL
- MIC [1, 14]: > 64 µg/mL
- MIC [1, 15]: > 64 µg/mL
- MIC [1, 16]: > 64 µg/mL
- MIC [1, 17]: > 64 µg/mL
- MIC [1, 18]: > 64 µg/mL
- MIC [1, 19]: 64 µg/mL (≈ 168 µM)
- MIC [1, 20]: > 64 µg/mL
- MIC [1, 21]: > 64 µg/mL
- MIC [1, 22]: > 64 µg/mL
- MIC [1, 23]: > 64 µg/mL
- MIC [1, 24]: > 64 µg/mL
- MIC [1, 25]: > 64 µg/mL
- MIC [1, 26]: > 64 µg/mL
- MIC [1, 27]: > 64 µg/mL
- MIC [1, 28]: > 64 µg/mL
- MIC [1, 29]: > 64 µg/mL
- MIC [1, 30]: > 64 µg/mL
- MIC [1, 31]: > 64 µg/mL
- MIC [1, 32]: 64 µg/mL (≈ 168 µM)
- MIC [1, 33]: > 64 µg/mL
- MIC [1, 34]: > 64 µg/mL
- MIC [1, 35]: > 64 µg/mL
- MIC [1, 36]: > 64 µg/mL
- MIC [1, 37]: > 64 µg/mL
- MIC [1, 38]: > 64 µg/mL
- MIC [1, 39]: 64 µg/mL (≈ 168 µM)
- MIC [1, 40]: > 64 µg/mL
- MIC [1, 41]: 64 µg/mL (≈ 168 µM)
- MIC [1, 42]: > 64 µg/mL
- MIC [1, 43]: > 64 µg/mL
- MIC [1, 44]: > 64 µg/mL
- MIC [1, 45]: > 64 µg/mL
- MIC [1, 46]: 64 µg/mL (≈ 168 µM)
- MIC [1, 47]: > 64 µg/mL
- MIC [1, 48]: > 64 µg/mL
- MIC [1, 49]: > 64 µg/mL
- MIC [1, 50]: 64 µg/mL (≈ 168 µM)
- MIC [1, 51]: > 64 µg/mL
- MIC [1, 52]: > 64 µg/mL
- MIC [2, 53]: > 64 µg/mL
- MIC ([2]; Strain 52 VISA): >64 µg/mL
Compound: COc1cccc(OC)c1C(=O)N[C@@H]1C(=O)N2[C@@H]1SC(C)(C)[C@@H]2C(=O)O [Meth, methicilline]
